Values of other authors in paper PMC4546328, “Effects of Inhibiting Dipeptidyl Peptidase-4 (DPP4) in Cows with Subclinical Ketosis” (PLoS ONE, 2015).

Design: method as in earlier work
Settings: prescribing information; primarily small increase of neutrophil granulocytes counts

In the case of `N[C@@H](CC(=O)N1CCn2c(nnc2C(F)(F)F)C1)Cc1cc(F)c(F)cc1F` [sitagliptin], the “effect on WBC” value is given as “slight increase in WBC”.
